Assays:
Assay type in all cases: physicochemical
[1] = Absorption, emission and fluorescence quantum yield in aqueous and alcoholic solvents
Source text: The absorption and emission maxima, and fluorescence quantum yields of these dyes in aqueous and alcoholic solvents are listed in Table 1. The long wavelength absorption and emission maxima and good fluorescence quantum yields in aqueous media make these dyes ideal candidates for application as fluorescence probes.

[2] = Photophysical properties and picosecond time-resolved fluorescence lifetimes in the presence of cationic micelle CTAB; details: for Abs λmax / Ems λmax / Φf: In the presence of CTAB
Source text: (§1) Study of the stability and photophysical properties of a photosensitizer under physiological conditions is important during its evaluation for various in vitro and in vivo applications. Particularly, the influence of membrane mimics like cetyltrimethylammonium bromide and carrier systems like β-cyclodextrin will provide information on the sensitizer behaviour under physiological conditions. Moreover, such studies are also useful to clarify points such as whether a particular dye forms aggregates or not and whether it generates cytotoxic agents or not in such environments. These media are unique in their properties, since β-CD forms inclusion complexes with the guest molecules, while others form micellar structures thereby provide in them both the hydrophobic and hydrophilic environment.
(§2) FIGS. 3, 4, and 5 show the emission spectra of dye of the general formula 1, wherein, R^1=—(CH2—CH2—O)n—CH3, n=4 and R^2=—CH3 in the presence of cationic micelle CTAB, anionic micelle SDS and neutral micelle Triton X-100, respectively. As the concentration of micelles increases, the fluorescence intensity of the dye increases showing an effective interaction between the micelles and the dye. To have a better understanding of the effect of micellar media we have analyzed the picosecond time-resolved fluorescence lifetimes of dyes of the general formula 1. […] Tables 2, 3 and 4
(§3) lists the absorption and emission maxima, fluorescence quantum yield and lifetimes of dyes of the general formula 1 wherein, R^1=—(CH2—CH2—O)n—CH3, n=4 and R^2=—CH3, general formula 2, wherein R^1, R^2=—(CH2—CH2—O)n—CH3, n=4 and general formula 3, wherein R^1=—(CH2)n—CO2X, n=3, X=H, and R^2=—CH3, in the absence and presence of cationic micelle CTAB, anionic micelle SDS and neutral micelle Triton X-100.

[3] = Photophysical properties and fluorescence lifetimes in the presence of anionic micelle SDS
Source text: as §1, §2, §3

[4] = Photophysical properties and fluorescence lifetimes in the presence of neutral micelle Triton X-100
Source text: as §1, §2, §3

[5] = Photophysical properties and fluorescence lifetimes in the presence of β-CD; details: for Abs λmax / Ems λmax / Φf: In the presence of β-CD
Source text: as §1
Table 5 summarises the absorption and emission maxima, fluorescence quantum yields and lifetimes of squaraine dyes of the general formula 1 in the presence of β-CD.

[6] = Summary of photophysical properties in the presence of membrane mimics and drug carriers; details: presence of membrane mimics and drug carriers versus aqueous media
Source text: The main advantages of these systems include: • 1. Squaraines dyes represented by formulae 1, 2 and 3 are novel and pure single substances. • 2. Their synthetic methodology is very economical. • 3. […] They can be used for photodynamic applications such as sterilization of fluids etc. • 7. The squaraine-based dyes can be used as near infrared fluorescent probes for protein labeling. • 8. The squaraine dyes of the general formula 1 can be used as near infrared fluorescent labels in immunoassays. • 9. They can be used for the detection of biologically important metal ions under physiological conditions. • 10. These novel dyes can be used as near-infrared fluorescence sensors in biological, biochemical and industrial applications.

[7] = Photophysical properties and fluorescence lifetimes in the presence of β-CD; details: in the absence of β-CD
[8] = In the presence of Triton X-100

Φf (fluorescence quantum yield) ([1]; 10% v/v Ethanol/water)	λmax, nm abs ([1]; 10% v/v Ethanol/water) [nm]	λmax, nm ems ([1]; 10% v/v Ethanol/water) [nm]	Φf (fluorescence quantum yield) ([1]; Ethanol)	λmax, nm abs ([1]; Ethanol) [nm]	λmax, nm ems ([1]; Ethanol) [nm]	Φf (fluorescence quantum yield) ([1]; Water)	λmax, nm abs ([1]; Water) [nm]	λmax, nm ems ([1]; Water) [nm]	Abs λmax [2] [nm]	Ems λmax [2] [nm]	Φf [2]	Abs λmax ([3]; In the presence of SDS) [nm]	Abs λmax [4, 8] [nm]	Ems λmax [4, 8] [nm]	Φf [4, 8]	Abs λmax [5] [nm]	Ems λmax [5] [nm]	Φf [5]	increase of emission quantum yield [6] [fold]	Structure (SMILES)	also measured
0.018	645	674	0.19	637	660	0.013	644	671	642	663	0.12	640	645	669	0.12	644	663	0.10	~10	COCCOCCOCCOCCN(C)c1ccc(C2=C([O-])C(=C3C=CC(=[N+](C)CCOCCOCCOCCOC)C=C3)C2=O)cc1 [Formula 1]	fluorescence intensity as the concentration of micelles increases ([2]; CTAB 0 to 129 mM, excitation 600 nm): increases; Ems λmax ([3]; In the presence of SDS): 663 nm; Lifetimes ([3]; In the presence of SDS): 590 ps; Φf ([3]; In the presence of SDS): 0.15; fluorescence intensity as the concentration of micelles increases ([3]; SDS 0 to 21 mM, excitation 600 nm): increases; fluorescence intensity as the concentration of micelles increases ([4]; Triton X-100 0 to 118 mM, excitation 600 nm): increases; form of fluorescence decay ([5]; in the presence of β-CD): Biexponential decay; form of fluorescence decay [7]: mono exponential decay
0.026	646	675	0.21	638	662	0.021	646	676	644	667	0.096	643	646	671	0.14	645	668	0.07	~10	COCCOCCOCCOCCN(CCOCCOCCOCCOC)c1ccc(C2=C([O-])C(=C3C=CC(=[N+](CCOCCOCCOCCOC)CCOCCOCCOCCOC)C=C3)C2=O)cc1 [Formula 2]	Ems λmax ([3]; In the presence of SDS): 668 nm; Φf ([3]; In the presence of SDS): 0.16; Relative contribution of lifetime component [4, 8]: (7%)
0.015	647	673	0.18	636	662	0.007	645	673	644	667	0.14		649	672	0.12	649	666	0.19	~10	CN(CCCC(=O)O)c1ccc(C2=C([O-])C(=C3C=CC(=[N+](C)CCCC(=O)O)C=C3)C2=O)cc1 [Formula 3]	

Reference: patent US20090068113A1, “AMPHIPHILIC SQUARAINE DYES, PROCESS FOR PREPARATION THEREOF AND USE THEREOF” (COUNCIL OF SCIENTIFIC AND INDUSTRIAL RESEARCH, priority 2005, published 2009)
